Like-named read-outs stand apart in the source and are kept apart here. A value given as a limit tells only on which side of the number the result lay.

Series [1] relates to L1210 (mouse lymphocytic leukemia) cells. In words: Cell growth inhibition assay, L1210. The format is cell-based. The conditions noted are these: L1210 murine leukemia cell line; avg of 4-16 determinations. The method, then: (§1) A population of cells (>1×10^6 cells/mL as determined with a hemocytometer) was diluted with an appropriate amount of Dulbecco-modified Eagle Medium (DMEM, Gibco) containing 10% fetal bovine serum (FBS, Gibco) to a final concentration of 30,000 cells/mL.
(§2) To each well of a 96-well plate (Corning Costar), 100 μL of the cell-media solution was added with a multichannel pipette. The cultures were incubated at 37° C. in an atmosphere of 5% CO2 and 95% humidified air for 24 hours. The test compounds were added to the plate as follows: test substances were diluted in DMSO to a concentration of 1 mM and 10-fold serial dilutions were performed on a separate 96-well plate. Fresh culture medium (100 μL) was added to each well of cells to constitute 200 μL of medium per well followed by 2 μL of each test agent. Compounds were tested in duplicate (n=2-8 times) at six concentrations between 0-1,000 nM or 0-10,000 nM. Following addition, cultures were incubated for an additional 72 hours.
(§3) The plates were incubated at 37° C. for either 5 minutes (L1210) or 15 minutes (HCT116 and HCT116/VM46).

Series [2] concerns HCT116/VM46 (vinblastine-resistant strain of HCT116, Pgp over-expression) cells. In words: Cell growth inhibition assay, HCT116/VM46. The conditions noted are these: for IC50: read-out: IC50 (nM) HCT116/VM46, resistant human colon cancer cell line, Pgp over-expression; for fold improvement over vinblastine, HCT116/VM46: relative to vinblastine; for activity difference between sensitive HCT116 and vinblastine-resistant HCT116/VM46: HCT116/VM46 vs HCT116. The method, then: as §1, §2, §3

Series [3] relates to HCT116 (human colorectal carcinoma) cells. In words: Cell growth inhibition assay, HCT116. The series is classed as cell-based. The conditions noted are these: for fold more potent than vinblastine, HCT116: relative to vinblastine. Here is the method: as §1, §2, §3
Where [4] appears, read: HCT116 human colon cancer cell line, avg of 4-16 determinations, read-out: IC50 (nM) HCT116.
Setting [5] is: text values in pM, read-out: IC50 HCT116.

As for `CC[C@]1(NC(=O)NC(C)C)C[C@@H]2CN(CCc3c([nH]c4ccccc34)[C@@](C(=O)OC)(c3cc4c(cc3OC)N(C)[C@H]3[C@@](O)(C(=O)OC)[C@H](OC(C)=O)[C@]5(CC)C=CCN6CC[C@]43[C@@H]65)C2)C1` [Compound 17], the IC50 in series [1] came to 5.5 nM; in series [2] it was 430 nM; in series [3] (setting [4]), 5.7 nM.
As for `CC[C@]12C=CCN3CC[C@@]4(c5cc([C@@]6(C(=O)OC)C[C@H]7CN(CCc8c6[nH]c6ccccc86)C[C@@](CC)(N(C)C)C7)c(OC)cc5N(C)[C@H]4[C@@](O)(C(=O)OC)[C@@H]1OC(C)=O)[C@@H]32` [Compound 46], the IC50 is above 10000 nM in series [2] and 980 nM in series [3] (setting [4]).
As to `CC[C@]1(NC(=S)NCCc2ccc(F)cc2)C[C@@H]2CN(CCc3c([nH]c4ccccc34)[C@@](C(=O)OC)(c3cc4c(cc3OC)N(C)[C@H]3[C@@](O)(C(=O)OC)[C@H](OC(C)=O)[C@]5(CC)C=CCN6CC[C@]43[C@@H]65)C2)C1` [Compound 38], the IC50 was 750 nM in series [2] and 60 nM in series [3] (setting [4]).
With `CC[C@]1(NC(=O)N2CCOCC2)C[C@@H]2CN(CCc3c([nH]c4ccccc34)[C@@](C(=O)OC)(c3cc4c(cc3OC)N(C)[C@H]3[C@@](O)(C(=O)OC)[C@H](OC(C)=O)[C@]5(CC)C=CCN6CC[C@]43[C@@H]65)C2)C1` [Compound 41], the IC50 in series [1] came out at 5.3 nM; in series [2], 360 nM; in series [3] (setting [4]), 4.5 nM.
As for `CC[C@]1(NC(=O)Nc2cccc(OC)c2)C[C@@H]2CN(CCc3c([nH]c4ccccc34)[C@@](C(=O)OC)(c3cc4c(cc3OC)N(C)[C@H]3[C@@](O)(C(=O)OC)[C@H](OC(C)=O)[C@]5(CC)C=CCN6CC[C@]43[C@@H]65)C2)C1` [Compound 29], the IC50 in series [1] was 5.4 nM; in series [2], 80 nM; in series [3] (setting [5]), 0.77 nM. In series [2], the “fold improvement over vinblastine, HCT116/VM46” value (shortened to “fold improvement”) was found to be 10 fold. The “fold more potent than vinblastine, HCT116” value in series [3] was around 10 fold.
As for `CC[C@]1(NC(=O)Nc2ccc(F)cc2)C[C@@H]2CN(CCc3c([nH]c4ccccc34)[C@@](C(=O)OC)(c3cc4c(cc3OC)N(C)[C@H]3[C@@](O)(C(=O)OC)[C@H](OC(C)=O)[C@]5(CC)C=CCN6CC[C@]43[C@@H]65)C2)C1` [Compound 24], the IC50 was found to be 5.7 nM in series [1], 400 nM in series [2] and 3.9 nM in series [3] (setting [4]).
`CCCCNC(=O)N[C@@]1(CC)C[C@@H]2CN(CCc3c([nH]c4ccccc34)[C@@](C(=O)OC)(c3cc4c(cc3OC)N(C)[C@H]3[C@@](O)(C(=O)OC)[C@H](OC(C)=O)[C@]5(CC)C=CCN6CC[C@]43[C@@H]65)C2)C1` [Compound 19]: the IC50 in series [1] amounted to 5.7 nM; in series [2], 270 nM; in series [3] (setting [4]), 4.6 nM.
With `CC[C@]1(NC(=O)NCc2ccco2)C[C@@H]2CN(CCc3c([nH]c4ccccc34)[C@@](C(=O)OC)(c3cc4c(cc3OC)N(C)[C@H]3[C@@](O)(C(=O)OC)[C@H](OC(C)=O)[C@]5(CC)C=CCN6CC[C@]43[C@@H]65)C2)C1` [Compound 34], the results for the IC50 in series [1], in series [2] and in series [3] (setting [4]) were 5.4 nM, 530 nM and 5.1 nM, respectively.
For `CCC1(NC(=O)NC)CC2CN(CCc3c([nH]c4ccccc34)C(C(=O)OC)(c3cc4c(cc3OC)N(C)C3C(O)(C(=O)OC)C(OC(C)=O)C5(CC)C=CCN6CCC43C65)C2)C1` (stereo not shown) [Compound 14], in that order: 5.7 nM, 530 nM and 0.82 nM.
On to `CC[C@]1(NC(=O)Oc2ccc([N+](=O)[O-])cc2)C[C@@H]2CN(CCc3c([nH]c4ccccc34)[C@@](C(=O)OC)(c3cc4c(cc3OC)N(C)[C@H]3[C@@](O)(C(=O)OC)[C@H](OC(C)=O)[C@]5(CC)C=CCN6CC[C@]43[C@@H]65)C2)C1` [Compound 13], for which the IC50 in series [3] (setting [4]) is 55 nM.
`CC[C@]1(NC(=O)NCc2ccccc2)C[C@@H]2CN(CCc3c([nH]c4ccccc34)[C@@](C(=O)OC)(c3cc4c(cc3OC)N(C)[C@H]3[C@@](O)(C(=O)OC)[C@H](OC(C)=O)[C@]5(CC)C=CCN6CC[C@]43[C@@H]65)C2)C1` [Compound 31]: the figures for the IC50 in series [1], in series [2] and in series [3] (setting [4]) were 6.4 nM, 740 nM and 7.3 nM, respectively.
With `CC[C@]1(NC(=O)Nc2ccccc2OC)C[C@@H]2CN(CCc3c([nH]c4ccccc34)[C@@](C(=O)OC)(c3cc4c(cc3OC)N(C)[C@H]3[C@@](O)(C(=O)OC)[C@H](OC(C)=O)[C@]5(CC)C=CCN6CC[C@]43[C@@H]65)C2)C1` [Compound 30], the results for the IC50 in series [1], in series [2] and in series [3] (setting [5]) were 4.8 nM, 65 nM and 0.77 nM, respectively. Also, in series [2], the “fold improvement” value is listed as 10 fold. Also, the “fold more potent than vinblastine, HCT116” value in series [3] is around 10 fold.
As for `CC[C@]1(NC(=O)Nc2ccc(Cl)cc2)C[C@@H]2CN(CCc3c([nH]c4ccccc34)[C@@](C(=O)OC)(c3cc4c(cc3OC)N(C)[C@H]3[C@@](O)(C(=O)OC)[C@H](OC(C)=O)[C@]5(CC)C=CCN6CC[C@]43[C@@H]65)C2)C1` [Compound 25], the IC50 in series [1] was determined as 6.2 nM; in series [2] it was 590 nM; in series [3] (setting [4]) it was 6.7 nM.
In the same order, the values of `CCCNC(=O)N[C@@]1(CC)C[C@@H]2CN(CCc3c([nH]c4ccccc34)[C@@](C(=O)OC)(c3cc4c(cc3OC)N(C)[C@H]3[C@@](O)(C(=O)OC)[C@H](OC(C)=O)[C@]5(CC)C=CCN6CC[C@]43[C@@H]65)C2)C1` [Compound 16] are 6 nM, 221 nM and 2.7 nM.
Turning to `CCC1(OC(=O)N(C)C)CC2CN(CCc3c([nH]c4ccccc34)C(C(=O)OC)(c3cc4c(cc3OC)N(C)C3C(O)(C(=O)OC)C(OC(C)=O)C5(CC)C=CCN6CCC43C65)C2)C1` (stereo not shown) [Compound 44], the IC50 in series [2] stood at 9100 nM; in series [3] (setting [4]), 4700 nM. In addition, the “fold less active than N,N-dimethyl urea or thiourea 39 and 43” value in series [3] (HCT116) is above 1000 fold.
For the compound `CC[C@]1(NC(=O)N2CCCCC2)C[C@@H]2CN(CCc3c([nH]c4ccccc34)[C@@](C(=O)OC)(c3cc4c(cc3OC)N(C)[C@H]3[C@@](O)(C(=O)OC)[C@H](OC(C)=O)[C@]5(CC)C=CCN6CC[C@]43[C@@H]65)C2)C1` [Compound 42], the IC50 came out at 5.5 nM in series [1], 50 nM in series [2] and 3.9 nM in series [3] (setting [4]). Moreover, the “activity difference between sensitive HCT116 and vinblastine-resistant HCT116/VM46” value in series [2] is 10 fold.
Turning to `CC[C@]1(NC(=O)NCCc2ccccc2)C[C@@H]2CN(CCc3c([nH]c4ccccc34)[C@@](C(=O)OC)(c3cc4c(cc3OC)N(C)[C@H]3[C@@](O)(C(=O)OC)[C@H](OC(C)=O)[C@]5(CC)C=CCN6CC[C@]43[C@@H]65)C2)C1` [Compound 32], the IC50 was 6.3 nM in series [1], 590 nM in series [2] and 6.3 nM in series [3] (setting [4]).
Take `CC[C@]1(NC)C[C@@H]2CN(CCc3c([nH]c4ccccc34)[C@@](C(=O)OC)(c3cc4c(cc3OC)N(C)[C@H]3[C@@](O)(C(=O)OC)[C@H](OC(C)=O)[C@]5(CC)C=CCN6CC[C@]43[C@@H]65)C2)C1` [Compound 45, 20′-(methylamino)vinblastine]: the results for the IC50 in series [2] and in series [3] (setting [4]) were 8500 nM and 60 nM, respectively.
In the same order, the values of `CC[C@]1(NC(=S)NC2CCCCC2)C[C@@H]2CN(CCc3c([nH]c4ccccc34)[C@@](C(=O)OC)(c3cc4c(cc3OC)N(C)[C@H]3[C@@](O)(C(=O)OC)[C@H](OC(C)=O)[C@]5(CC)C=CCN6CC[C@]43[C@@H]65)C2)C1` [Compound 36] are 520 nM and 20 nM.
For `CCC1(NC(=S)N(C)C)CC2CN(CCc3c([nH]c4ccccc34)C(C(=O)OC)(c3cc4c(cc3OC)N(C)C3C(O)(C(=O)OC)C(OC(C)=O)C5(CC)C=CCN6CCC43C65)C2)C1` (stereo not shown) [Compound 43], in series [2], the “activity difference between sensitive HCT116 and vinblastine-resistant HCT116/VM46” value stood at 10 fold; the IC50 turned out to be 250 nM. Further, the IC50 in series [3] (setting [4]) was 8.7 nM.
On to `CCNC(=O)NC1(CC)CC2CN(CCc3c([nH]c4ccc(F)cc34)C(C(=O)OC)(c3cc4c(cc3OC)N(C)C3C(O)(C(=O)OC)C(OC(C)=O)C5(CC)C=CCN6CCC43C65)C2)C1` (stereo not shown) [Compound 49], for which, in series [2], the IC50 is 70 nM and the “fold improvement” value was around 10 fold. In addition, the “fold more potent than vinblastine, HCT116” value in series [3] is “at least 10 fold”. Moreover, in series [3] (setting [5]), the IC50 came to 0.62 nM.
As for `CCC1(NC(=S)Nc2ccccc2)CC2CN(CCc3c([nH]c4ccccc34)C(C(=O)OC)(c3cc4c(cc3OC)N(C)C3C(O)(C(=O)OC)C(OC(C)=O)C5(CC)C=CCN6CCC43C65)C2)C1` (stereo not shown) [Compound 37], the IC50 in series [2] was found to be 650 nM; in series [3] (setting [4]), 40 nM.
For the compound `CCNC(=O)N(C)[C@@]1(CC)C[C@@H]2CN(CCc3c([nH]c4ccccc34)[C@@](C(=O)OC)(c3cc4c(cc3OC)N(C)[C@H]3[C@@](O)(C(=O)OC)[C@H](OC(C)=O)[C@]5(CC)C=CCN6CC[C@]43[C@@H]65)C2)C1` [Compound 47], the figures for the IC50 in series [2] and in series [3] (setting [4]) were 8500 nM and 520 nM, respectively. Further, the “fold decrease in activity between 15 and 47” value in series [3] (HCT116) amounted to 700 fold.
For `CCN(CC)C(=O)N[C@@]1(CC)C[C@@H]2CN(CCc3c([nH]c4ccccc34)[C@@](C(=O)OC)(c3cc4c(cc3OC)N(C)[C@H]3[C@@](O)(C(=O)OC)[C@H](OC(C)=O)[C@]5(CC)C=CCN6CC[C@]43[C@@H]65)C2)C1` [Compound 40], the IC50 in series [2] stood at 450 nM; in series [3] (setting [4]) it was 6.7 nM.

Source of the values: patent US20150291610A1, “C20' Urea Derivatives of Vinca Alkaloids” (THE SCRIPPS RESEARCH INSTITUTE, priority 2012, published 2015).
